# Results from patent publication US7659251B2, “Ligand for G-protein coupled receptor FPRL2” (priority 2004, dated 2010).
# Legend:
# FPRL1 [1] = biological target: T1, FPRL1 (Homo sapiens, UniProt P25090); assay: Aequorine assay on human FPRL1 expressing cells (Example 9); format: cell-based; settings: data not shown
# T1 construct: expressed in transfected cells; host or cells: CHO-K1 (with or without Galpha16 and apoaequorin)
# T1 sequence (P25090 1-351): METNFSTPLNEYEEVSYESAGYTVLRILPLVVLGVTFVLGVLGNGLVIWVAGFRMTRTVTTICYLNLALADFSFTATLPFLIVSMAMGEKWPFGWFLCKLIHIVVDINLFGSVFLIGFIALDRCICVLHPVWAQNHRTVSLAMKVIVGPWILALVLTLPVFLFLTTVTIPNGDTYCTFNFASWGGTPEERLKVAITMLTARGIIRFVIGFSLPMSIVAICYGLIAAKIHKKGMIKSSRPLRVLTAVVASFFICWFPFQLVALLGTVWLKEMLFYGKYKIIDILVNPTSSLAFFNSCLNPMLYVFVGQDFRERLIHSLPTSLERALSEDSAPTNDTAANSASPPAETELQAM
# Protocol: (§1) Functional responses were analyzed by recording the luminescence of aequorine in human FPRL2 and FPRL1 expressing cells following the addition of agonists or purified monoclonal antibodies.
# (§2) In brief, cells were collected from plates with PBS containing 5 mM EDTA, pelleted, resuspend at 5×10^6 cells/ml in DMEM/F-12 medium containing 0.1% bovine serum albumin, incubated with 5 μM coelenterazine H (molecular probes, Inc. Eugene, Oreg.) for 4 h at room temperature and diluted in DMEM/F-12 medium at a concentration of 5×10^5 cells/ml. Cells where then mixed in an 96 wells plate with the ligands or purified monoclonal antibodies. The light emission was recorded over 60 sec using a microlumat Luminometer (EG&G Berthold, microplate luminometer LB 96V).
# (§3) Each data point is in duplicate. […] Human FPRL1 expressing cells were used as negative control to Mab. Functionality of these cells has been control with Humanin.
# FPRL2 [2] = biological target: T2, FPRL2 (Homo sapiens, UniProt P25089); assay: Aequorine assay on human FPRL2 expressing cells (Example 9); format: cell-based; parameters: expressed in transfected cells; host or cells: CHO-K1 (with or without Galpha16 and apoaequorin); settings: peptides 2.5 μM to 0.4 nM, Mab 500 ug/ml to 5 ug/ml; FIG. 15
# T2 sequence (P25089 1-353): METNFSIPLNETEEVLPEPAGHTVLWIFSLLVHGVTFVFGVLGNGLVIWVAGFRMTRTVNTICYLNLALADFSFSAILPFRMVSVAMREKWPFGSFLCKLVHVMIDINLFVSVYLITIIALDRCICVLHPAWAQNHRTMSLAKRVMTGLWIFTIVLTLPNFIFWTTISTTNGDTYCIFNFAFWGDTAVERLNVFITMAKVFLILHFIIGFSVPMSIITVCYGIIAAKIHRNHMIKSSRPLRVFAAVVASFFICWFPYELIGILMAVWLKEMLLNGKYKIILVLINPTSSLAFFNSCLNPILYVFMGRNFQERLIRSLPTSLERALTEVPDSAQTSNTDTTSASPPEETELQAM
# Protocol: as §1, §2, §3
# FPRL2 [3] = biological target: T2, FPRL2; assay: Saturation and competition binding on FPRL2-expressing CHO-K1 cells, tracer F2L-[125I]Tyr; parameters: expressed in transfected cells; host or cells: CHO-K1; settings: for competition for FPRL2 binding: up to concentrations of 3 μM, data not shown
# Protocol: FPRL2, FPRL1 and FPR-expressing CHO-K1 cells were plated in 24 wells plates (200,000 cells per well for FPRL2, and 100,000 cells per well for the two other receptors). The next day, the cells were washed twice with a KRH buffer containing 280 mM saccharose and, for FPRL1 and FPR, 0.1 % NaN3. […] Cells were washed twice with ice cold buffer, total radioactivity was recovered with 1 M […] and counted in a gamma counter for […]
# FPRL2 [4] = biological target: T2, FPRL2; assay: Aequorin-based assay on CHO-K1 cells expressing FPRL2, apoaequorin and Galpha16; format: cell-based; parameters: expressed in transfected cells; host or cells: CHO-K1 (with or without Galpha16 and apoaequorin); settings: for concentrations required to activate FPRL2 (calcium): FPRL2-expressing CHO-K1 cells
# Protocol: Briefly, FPRL2 polypeptide-expressing clones are transfected to coexpress mitochondrial apoaequorin and Gα16. Cells are incubated with 5 μM Coelenterazine H (Molecular Probes) for 4 hours at room temperature, washed in DMEM-F12 culture medium and resuspended at a concentration of 0.5×10^6 cells/ml. Cells are then mixed with test agonist molecules and light emission by the aequorin is recorded with a luminometer for 30 sec. Results are expressed as Relative Light Units (RLU). Controls include assays using membranes isolated from cells not expressing FPRL2 polypeptide (mock transfected), in order to exclude possible non-specific effects of the candidate compound.
# FPRL2 expressing clones have been obtained by transfection of CHO-K1 cells to coexpressing mitochondrial apoaequorin and Galpha16, limiting dilution and selection by northern blotting. Positive clones were used for screening with porcine spleen extracts prepared as described above. […] Briefly, cells were collected from plates in PBS containing 5 mM EDTA, pelleted and resuspended at 5×10^6 cells/ml in DMEM-F12 medium. Cells were incubated with 5 μM Coelenterazine H (Molecular Probes) for 4 hours at room temperature. Cells were then washed in DMEM-F12 medium and resuspended at a concentration of 0.5×10^6 cells/ml. Cells were then mixed with test agonist peptides or plates containing tissue extracts and the light emission was recorded for 30 sec using a Microlumat luminometer (Perlin Elmer). Results are expressed as Relative Light Units (RLU).
# (§4) The human coding sequences (accession numbers AC005946, M84562 and M60626, respectively) were amplified by PCR from human genomic DNA, cloned into the pcDNA3 (Invitrogen) and pEFIN3 (Euroscreen) vectors and sequenced. The pEFIN3 constructs were transfected, using Fugene 6, into CHO-K1 cells, expressing or not Gα16 and apoaequorin. G418-resistant clones were characterized for receptor expression by Northern blotting. […] Results were expressed as relative light units (RLU) or as the percentage of the response to 20 μM ATP.
# The cAMP concentrations were determined using a homogeneous time-resolved fluorescence (HTRF) kit (Cis Bio International). Briefly, cells were detached, resuspended in Krebs Ringer Hepes buffer containing 1 mM 3-Isobutyl-1-methylxanthine, and submitted to 10 μM forskolin, alone or together with increasing concentrations of agonists for 30 min at room temperature. The reaction was stopped by the successive addition of cAMP-XL665 and anti-cAMP cryptate diluted in lysis buffer. The plates were incubated for 60 min at room temperature and read on a Rubystar fluorimeter (BMG). […] A calibration curve was obtained by plotting delta F % versus cAMP concentrations. […] The aequorin-based assay was performed with or without overnight pretreatment with 100 ng/ml Pertussis toxin. […] For FPRL2 polymorphism analysis, HEK cells were transiently transfected with empty and wild-type or Asp338H is FPRL2-containing pcdna vector using calcium phosphate method. Cells were recovered 48 hours later and used for FACS or cAMP experiments.
# FPRL1 [5] = biological target: T1, FPRL1; assay: Aequorin-based assay on CHO-K1 cells expressing FPRL1; format: cell-based; settings: FPRL1 expressed in CHO-K1 cells
# From the text: as §4
# FPR = biological target: T3, FPR (Homo sapiens, UniProt P21462, E346A/V101L); assay: Aequorin-based assay on CHO-K1 cells expressing FPR; format: cell-based; settings: FPR expressed in CHO-K1 cells
# T3 construct: expressed in transfected cells; host or cells: CHO-K1 (with or without Galpha16 and apoaequorin)
# T3 sequence (P21462 1-350 V101L/E346A): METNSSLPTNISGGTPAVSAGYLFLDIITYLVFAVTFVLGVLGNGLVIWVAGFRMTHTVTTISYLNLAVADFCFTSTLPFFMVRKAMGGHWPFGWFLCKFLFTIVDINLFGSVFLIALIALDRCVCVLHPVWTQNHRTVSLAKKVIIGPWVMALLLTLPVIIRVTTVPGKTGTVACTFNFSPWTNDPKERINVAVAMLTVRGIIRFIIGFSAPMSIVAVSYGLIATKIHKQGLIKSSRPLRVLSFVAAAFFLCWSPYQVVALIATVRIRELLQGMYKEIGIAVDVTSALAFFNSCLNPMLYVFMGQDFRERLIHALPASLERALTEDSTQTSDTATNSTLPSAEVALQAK
# From the text: as §4
Compound,competition for FPRL2 binding (FPRL2 [3]),concentrations active on FPRL1 (FPRL1 [5]),concentrations active on FPR (FPR),concentrations required to activate FPRL2 (calcium) (FPRL2 [4]),also measured
"Humanin: Humanin (HN(N)) peptide (Phoenix Pharmaceuticals), disclosed as a ligand for FPRL2 and FPRL1 [reference compound]",–,–,–,–,activation of human FPRL1 expressing cells (FPRL1 [1]): activates; activation of human FPRL2 expressing cells (FPRL2 [2]): activates
"NSLFGSVETWPWQVL [F2L[7-21], truncated F2L variant lacking the first six aminoacids]",–,–,–,–,activity in binding assay (FPRL2 [3]; not shown): totally inactive; activity in aequorin assay (FPRL2 [4]; FIG. 11H): totally inactive
"CSCC[C@H](NC=O)C(=O)N[C@@H](CC(C)C)C(=O)N[C@@H](Cc1ccccc1)C(=O)O [FMLP, formyl-methionine-leucyl-phenylalanine]",did not compete,–,–,–,activity on FPRL2 (FPRL2 [4]; FPRL2-expressing cells): inactive
CSCC[C@H](NC(=O)[C@@H](NC(=O)[C@H](CCSC)NC(=O)[C@H](Cc1ccc(O)cc1)NC(=O)[C@H](CCCCN)NC(=O)[C@@H](N)Cc1c[nH]c2ccccc12)C(C)C)C(N)=O [WKYMVM],did not compete,low nanomolar concentrations,low nanomolar concentrations,micromolar concentrations,–
Pertussis toxin,–,–,–,–,"effect of pretreatment on F2L calcium signaling (FPRL2 [4]; 100 ng/ml overnight pretreatment, FIG. 11G): totally inhibited"
CSCC[C@H](NC(=O)[C@H](Cc1ccc(O)cc1)NC(=O)[C@H](CCCCN)NC(=O)[C@@H](N)Cc1c[nH]c2ccccc12)C(=O)N[C@H](C(=O)N[C@H](CCSC)C(N)=O)C(C)C [WKYMVm],did not compete,low nanomolar concentrations,low nanomolar concentrations,micromolar concentrations,–
